SMILES strings stand for the structures.

For the assay, the target named is Cannabinoid receptor 2 (Homo sapiens) (UniProt P34972). Description: Binding affinity to CB2 receptor.
Cannabinoid receptor 2 (Homo sapiens), sequence (P34972 whole entry, looked up): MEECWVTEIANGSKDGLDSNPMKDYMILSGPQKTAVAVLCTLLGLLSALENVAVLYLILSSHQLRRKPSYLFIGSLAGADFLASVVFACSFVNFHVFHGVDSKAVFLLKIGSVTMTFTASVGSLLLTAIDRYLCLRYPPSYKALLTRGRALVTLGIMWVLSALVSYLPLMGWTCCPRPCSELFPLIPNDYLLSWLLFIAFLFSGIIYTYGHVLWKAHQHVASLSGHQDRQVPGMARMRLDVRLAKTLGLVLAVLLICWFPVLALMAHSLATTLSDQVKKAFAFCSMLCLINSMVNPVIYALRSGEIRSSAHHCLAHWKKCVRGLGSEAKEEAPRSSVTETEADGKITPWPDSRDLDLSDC
For `C[C@H](NS(=O)(=O)C(F)(F)F)c1ccc(S(=O)(=O)c2ccc(Cl)cc2S(=O)(=O)c2c(N)cccc2F)cc1`, the Ki was determined as 4.1 nM. The result for `C[C@H](NCCC(F)(F)F)c1ccc(S(=O)(=O)c2ccc(Cl)cc2S(=O)(=O)c2ccccc2F)cc1` reads 17 nM. Under `C[C@H](NS(C)(=O)=O)c1ccc(S(=O)(=O)c2ccc(Cl)cc2S(=O)(=O)c2ccccn2)cc1` stands 2.9 nM; under `C[C@H](NS(C)(=O)=O)c1ccc(S(=O)(=O)c2ccc(Cl)cc2S(=O)(=O)c2cccc[n+]2[O-])cc1`, 119 nM.

Compound `C[C@H](NS(=O)(=O)C(F)(F)F)c1ccc(S(=O)(=O)c2ccc(C(F)(F)F)cc2S(=O)(=O)c2ccccc2F)cc1` gave an inhibition constant Ki of 2.5 nM. Against the preceding compound, the Ki is about 48-fold lower.

`C[C@H](NCC(F)(F)F)c1ccc(S(=O)(=O)c2ccc(Cl)cc2S(=O)(=O)c2ccccc2F)cc1` displayed a Ki of 7 nM. The result for `C[C@H](NS(=O)(=O)C(F)(F)F)c1ccc(S(=O)(=O)c2ccccc2S(=O)(=O)c2ccccc2F)cc1` reads 25 nM; that for `C[C@H](NS(=O)(=O)C(F)(F)F)c1ccc(S(=O)(=O)c2ccc(O)cc2S(=O)(=O)c2ccccc2F)cc1`, 1.3 nM. The result for `CNS(=O)(=O)c1cc(Cl)ccc1S(=O)(=O)c1ccc([C@H](C)NS(C)(=O)=O)cc1` reads 1250 nM; that for `C[C@H](N)c1ccc(S(=O)(=O)c2ccc(Cl)cc2S(=O)(=O)c2ccccc2F)cc1`, 3950 nM.

`C[C@H](NS(=O)(=O)C(F)(F)F)c1ccc(S(=O)(=O)c2ccc(Cl)cc2S(=O)(=O)c2c(F)cccc2N2CCOCC2)cc1` displayed a Ki of 140 nM. Turning to `C[C@H](NS(=O)(=O)C(F)(F)F)c1ccc(S(=O)(=O)c2ccc(OC(F)(F)F)cc2S(=O)(=O)c2ccccc2F)cc1`, the affinity corresponds to a Ki of 5 nM. This Ki lies about 28-fold lower than the previous one.

The compound `C[C@H](NS(C)(=O)=O)c1ccc(S(=O)(=O)c2ccc(Cl)cc2S(=O)(=O)c2ccccc2F)cc1` came in with a Ki of 1.3 nM. Under `CCCS(=O)(=O)c1cc(Cl)ccc1S(=O)(=O)c1ccc([C@H](C)NS(C)(=O)=O)cc1` stands 308 nM; under `C[C@H](NS(C)(=O)=O)c1ccc(S(=O)(=O)c2ccc(Cl)cc2S(=O)(=O)c2cccc3cccnc23)cc1`, 204 nM. In turn, `CNc1cccc(F)c1S(=O)(=O)c1cc(Cl)ccc1S(=O)(=O)c1ccc([C@H](C)NS(=O)(=O)C(F)(F)F)cc1` registered an inhibition constant Ki of 22 nM. The result for `C[C@H](NC(=O)C(F)(F)F)c1ccc(S(=O)(=O)c2ccc(Cl)cc2S(=O)(=O)c2ccccc2F)cc1` reads 3.7 nM; that for `C[C@H](NS(=O)(=O)C(F)(F)F)c1ccc(S(=O)(=O)c2ccc(N3CCNCC3)cc2S(=O)(=O)c2ccccc2F)cc1`, 1100 nM. Consider `C[C@H](NS(=O)(=O)C(F)(F)F)c1ccc(S(=O)(=O)c2ccc(N)cc2S(=O)(=O)c2ccccc2F)cc1`, for which the Ki was determined as 10 nM. On to `C[C@H](NS(C)(=O)=O)c1ccc(S(=O)(=O)c2ccc(Cl)cc2S(=O)(=O)N(C)C)cc1`, for which the Ki stood at 1270 nM.

For orientation: Ki means the equilibrium dissociation constant of an inhibitor or competing ligand from its target.

The values above are taken from ChEMBL document CHEMBL1139959, “Optimization of triaryl bis-sulfones as cannabinoid-2 receptor ligands” (Bioorg Med Chem Lett, 2007).
